The test system of this data set is UDP-glucuronosyl transferase. The format is in vitro ADME, human. The conditions noted are these: for % Control (M3G Formation Activity) / % Control (M6G Formation Activity): morphine 2mM, HLM protein 0.5 mg/mL, 30 min. The method, then: Incubations were conducted in 2-mL polypropylene centrifuge tubes. Incubation mixtures containing HLM suspension and alamethicin (25 µg/mL) in 0.1 M potassium phosphate buffer (pH 7.4), were placed on wet ice for 5 min. […] Reactions were initiated by the addition of 50 mM UDPGA spiking solution. […] Samples were incubated aerobically in a water bath at 37 °C for the required amount of time and reactions terminated by the addition of 400 µL of the appropriate quench solution. The 2-mL centrifuge tubes were vortex mixed and stored in a -20 °C freezer for ca. 20 min prior to centrifugation at 13.3 × g, 4 °C for 10 min. Supernatants were analyzed by LC-MS/MS for morphine metabolites formation.
UGT-dependent activities were determined by monitoring the formation of enzyme specific metabolites from marker substrates. […] Incubation with selective inhibitors (positive control) was performed at a concentration above their established IC50 for the confirmation of enzyme activity and inhibitory effects.
Incubations were performed in 2-mL centrifuge tubes. Incubation mixtures containing HLM suspension and alamethicin (25 µg/mL) in 0.1 M potassium phosphate buffer (pH 7.4), were placed on wet ice for 5 min. […] Reactions were initiated by the addition of UDPGA. The final incubation mixture contained 0.5 mg/mL HLM, 2 mM MgCl2, 5 mM UDPGA, various concentration of Compound A or a selective inhibitor. Samples were incubated aerobically in a water bath at 37 °C for 30 min. The incubation systems were terminated by the addition of a 400-µL quenching solution. The 2-mL centrifuge tubes were vortex mixed and stored in a -20 °C freezer for approximately 20 min prior to centrifugation at 13.3 × g, 4 °C for 10 min. Supernatants were analyzed by LC-MS/MS.
Percent of Control = Cmet ÷ Ccontrol × 100%
Cmet: Concentration of the metabolite in the incubations in the presence of Compound A or selective inhibitor
Ccontrol: Concentration of the enzyme-specific metabolite in the incubations in the absence of Compound A and selective inhibitor
The IC50 for Compound A was estimated by non-linear regression analysis of individual sets of percent inhibition values using GraphPad Prism 5.

Where [1] appears, read: positive control incubation, same conditions (2 mM morphine, HLM 0.5 mg/mL, 30 min).

The structures appear in SMILES notation. Read-outs that look alike come from different tables or passages of the source.

Consider `COc1ccc2c(cccc2[C@H]2CO[C@H](CCCNC(=O)OCC(N)=O)OC2)c1` [Compound A, 2-amino-2-oxoethyl trans-3-[5-(6-methoxy-naphtalen-1-yl)-1,3-dioxan-2-yl]propyl-carbamate], for which, under “2 mM morphine in HLM, Compound A 0.5 to 250 µM, M3G and M6G formation monitored”, the IC50 entry is on record as “could not be estimated”. Besides, the “% Control (M3G Formation Activity)” value came to 97.7% (Compound A 0.5 µM); 96.2% (Compound A 1.0 µM); 106.0% (Compound A 5.0 µM); 107.9% (Compound A 10 µM); 108.3% (Compound A 25 µM); 105.7% (Compound A 50 µM). The “% Control (M3G Formation Activity)” value was found to be 92.7% (Compound A 100 µM) and 94.2% (Compound A 250 µM). The “% Control (M6G Formation Activity)” value by setting is: (Compound A 0.5 µM) 96.9%; (Compound A 1.0 µM) 94.4%; (Compound A 5.0 µM) 102.4%; (Compound A 10 µM) 110.4%; (Compound A 25 µM) 105.8%; (Compound A 50 µM) 108.3%. The “% Control (M6G Formation Activity)” value reads like this: (Compound A 100 µM) 97.4%; (Compound A 250 µM) 96.5%. Also, under “according to in vitro results”, the “drug interaction with morphine” value was “no significant drug interaction”. Besides, the “inhibition of morphine metabolism” value (human liver microsomes, formation of morphine-3-glucuronide and morphine-6-glucuronide monitored) is listed as “no inhibition”.

As to `CC(=O)N1CCN(c2ccc(OCC3COC(Cn4ccnc4)(c4ccc(Cl)cc4Cl)O3)cc2)CC1` (stereo not drawn) [ketoconazole, reference compound], under setting [1], the “inhibition to M3G activity” value was no less than 98.5% and the “inhibition to M6G activity” value is no less than 98.5%.

Values taken from patent publication EP2545915A1, “2-amino-2-oxoethyl trans-3-[5-(6-methoxy-naphtalen-1-yl)-1,3-dioxan-2-yl]propyl-carbamate for use in the treatment of persistent cancer pain” (SANOFI, priority 2011, dated 2013).
